SMILES strings stand for the structures.

The subject of this experiment is paw withdrawal threshold. In words: Von Frey test following spinal cord injury (mechanical hyperalgesia). The format is in vivo, rat. The following applies: for effect on mechanical hyperalgesia (paw withdrawal threshold): 21 days after injury. The protocol:
Thoracic spinal unilateral hemisection in rats was used as a model of SCI. Adult female Wistar Rats (Charles River) were anaesthetized intraperitoneally with 50 mg/kg ketamine (Imalgen®, Merial, Duluth, Ga., USA) and 0.25 mg/kg Medetomidine (Domitor®, Janssen Pharmaceutica, Beerse, Belgium). The antibiotic Amoxycyline (Duphamox LA®, Pfizer, 150 mg/kg) was injected subcutaneously before the surgery. The skin was cut longitudinally over T8-T10 vertebra and a local anesthetic (2% Procaine hydrochloride, Pharmy H, Saint-Germain-en-Laye, France) was injected intramuscularly before cuting the paravertebral muscles. A laminectomy was performed at vertebral segment T9. The spinal cord was hemisected on the left side with microscissors at the level of the T8 spinal segment. Finally, paravertebral muscles and skin were sutured and rats were treated with buprenorphine for analgesia (1 injection before awakening from anaesthesia and 2 more injections over the next 24 h period). Aspirin was diluted in their water bottles for 3 days (aspegic, 200 mg in 150 ml). The rats weight, temperature and water intake were checked and their bladder was emptied manually twice a day until recovery of autonomy.
At day 21 post lesion, the rats were tested once with Von Frey hair and plantar test in order to have their baseline values. […] Then the effects of the drug was measured alternatively on mechanical and thermal hyperalgesia every 15 min, that is at […] after injection, respectively.
The plantar surface of the left, then right hind paws were probed using von Frey monofilaments £Bioseb, Paris, France) which apply different calibrated forces when they bent. The test started by applying a Von Frey hair of 8 g for 3 sec, and the 50% withdrawal thresholds of each hindlimb in response to tactile stimulation were measured using the up and down method (Chaplan et al., 1994).

On to `CN1CCN(CCCN2c3ccccc3Sc3ccc(Cl)cc32)CC1` [compound 2, 2-chloro-10-[3-(4-methyl-1-piperazinyl)propyl]-10H-phenothiazine], for which the “time after injection at which effects were significant” value (i.p. or i.v., Von Frey test) amounted to 40 min. The “effect on mechanical hyperalgesia (paw withdrawal threshold)” value reads like this: (intraperitoneally 2 mg/kg) “temporarily reduces mechanical hyperalgesia”; (intravenously 50 ng/kg) “temporarily reduces mechanical hyperalgesia”.

The values above are taken from patent US9814727B2, “Piperazine phenothiazine derivatives for treating spasticity” (UNIVERSITE D'AIX-MARSEILLE, priority 2014, dated 2017).
